How the values were obtained:
Format in all cases: cell-based
BRAF V600E = molecular target: T1, BRAF V600E (Homo sapiens, UniProt P15056, V600E); test: BRAF HiBiT degradation assay, C-terminal HiBiT-tagged BRAF V600E A375 cells (clone 1F10), Nano-Glo HiBiT Lytic assay; conditions: for Dmax: A-375
T1 construct: endogenous C-terminal HiBiT fusion tag on BRAF V600E allele; endogenous in cells; host or cells: A375 clone 1F10 (CRISPR-Cas9 knock-in of the HiBiT tag; parental A375 from ATCC)
Method in brief: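 A375 cells with CRISPR knock-in C-terminal HiBiT on endogenous BRAF V600E (clone 1F10) were seeded and cultured 24 h at 37 °C, then dosed with an 11-point half-log series (1 μM to 0.01 nM, duplicate, 0.2% DMSO). Lytic HiBiT luminescence gave % protein remaining; DC50 was the fitted concentration at 50%.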

BRAF G466V = molecular target: T2, BRAF G466V (Homo sapiens, UniProt P15056, G466V); test: BRAF HiBiT degradation assay, C-terminal HiBiT-tagged BRAF G466V overexpressed in HCT-116 BRAF−/− cells (clone 8), Nano-Glo HiBiT Lytic assay
T2 construct: Horizon Discovery (HCT-116 BRAF−/− cells); host or cells: HCT-116 BRAF−/− cells, clone 8, lentiviral transduction
T2 sequence (P15056 whole entry G466V): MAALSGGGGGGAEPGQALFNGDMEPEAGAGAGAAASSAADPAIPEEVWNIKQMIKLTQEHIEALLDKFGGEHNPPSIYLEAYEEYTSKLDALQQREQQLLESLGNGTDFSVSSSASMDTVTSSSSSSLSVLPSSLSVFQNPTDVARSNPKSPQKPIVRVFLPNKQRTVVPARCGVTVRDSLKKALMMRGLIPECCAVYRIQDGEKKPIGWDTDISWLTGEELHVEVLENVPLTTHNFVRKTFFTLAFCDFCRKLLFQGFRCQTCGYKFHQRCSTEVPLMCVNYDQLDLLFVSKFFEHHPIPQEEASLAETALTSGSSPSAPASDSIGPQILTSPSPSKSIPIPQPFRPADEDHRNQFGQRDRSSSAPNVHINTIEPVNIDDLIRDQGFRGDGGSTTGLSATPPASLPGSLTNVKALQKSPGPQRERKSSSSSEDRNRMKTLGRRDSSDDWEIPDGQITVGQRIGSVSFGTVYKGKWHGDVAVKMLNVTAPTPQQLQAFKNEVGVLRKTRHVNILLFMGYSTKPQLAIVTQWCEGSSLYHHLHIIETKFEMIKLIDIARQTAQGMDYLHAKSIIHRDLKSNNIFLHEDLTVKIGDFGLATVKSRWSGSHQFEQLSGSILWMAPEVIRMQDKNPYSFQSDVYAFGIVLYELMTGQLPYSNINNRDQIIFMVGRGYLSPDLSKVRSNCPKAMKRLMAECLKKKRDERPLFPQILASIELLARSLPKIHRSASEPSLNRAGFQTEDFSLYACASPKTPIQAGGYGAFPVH
Method in brief: (§1)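 HCT-116 BRAF−/− cells stably expressing the tagged mutant were seeded at 3,000 cells/well and grown 24 h at 37 °C before an 11-point half-log series from 1 μM to 0.01 nM, run in duplicate at 0.2% DMSO. Lytic HiBiT luminescence gave % protein remaining versus DMSO controls; DC50 was the fitted concentration at 50%.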

BRAF G469A = molecular target: T3, BRAF G469A (Homo sapiens, UniProt P15056, G469A); test: BRAF HiBiT degradation assay, C-terminal HiBiT-tagged BRAF G469A overexpressed in HCT-116 BRAF−/− cells (clone 34), Nano-Glo HiBiT Lytic assay
T3 construct: Horizon Discovery (HCT-116 BRAF−/− cells); host or cells: HCT-116 BRAF−/− cells, clone 34, lentiviral transduction
T3 sequence (P15056 whole entry G469A): as the sequence (P15056 whole entry G466V) above, with V466G, G469A counted along it
Method in brief: as §1

BRAF D594G = molecular target: T4, BRAF D594G (Homo sapiens, UniProt P15056, D594G); test: BRAF HiBiT degradation assay, C-terminal HiBiT-tagged BRAF D594G overexpressed in HCT-116 BRAF−/− cells (clone 63), Nano-Glo HiBiT Lytic assay
T4 construct: Horizon Discovery (HCT-116 BRAF−/− cells); host or cells: HCT-116 BRAF−/− cells, clone 63, lentiviral transduction
T4 sequence (P15056 whole entry D594G): as the sequence (P15056 whole entry G466V) above, with V466G, D594G counted along it
Method in brief: as §1

[1] = A375 (BRAF V600E, Class 1), DC50 at 50% degradation
[2] = A375 (BRAF V600E, Class 1), observed Dmax, % protein degraded relative to DMSO control
[3] = BRAF G466V (Class 3), HCT-116 BRAF−/− cells, DC50 at 50% degradation
[4] = BRAF G466V (Class 3), HCT-116 BRAF−/− cells, observed Dmax relative to DMSO control
[5] = BRAF G469A (Class 2), HCT-116 BRAF−/− cells, DC50 at 50% degradation
[6] = BRAF G469A (Class 2), HCT-116 BRAF−/− cells, observed Dmax relative to DMSO control
[7] = BRAF D594G (Class 3), HCT-116 BRAF−/− cells, DC50 at 50% degradation
[8] = BRAF D594G (Class 3), HCT-116 BRAF−/− cells, observed Dmax relative to DMSO control

T1 sequence (P15056 whole entry V600E, the tested form may be a part): as the sequence (P15056 whole entry G466V) above, with V466G, V600E counted along it

Compound | DC50 (BRAF V600E; [1]) | Dmax (BRAF V600E; [2]) | DC50 (BRAF G466V; [3]) | Dmax (BRAF G466V; [4]) | DC50 (BRAF G469A; [5]) | Dmax (BRAF G469A; [6]) | DC50 (BRAF D594G; [7]) | Dmax (BRAF D594G; [8]) | DC50 (BRAF V600E; A375 (BRAF V600E), DC50 at 50%: fitted conc. at Y=50) | Dmax (BRAF V600E; A375 (BRAF V600E), percentage protein degraded at maximal compound effect relative to DMSO) | DC50 (BRAF G466V; BRAF G466V, DC50 at 50%: fitted conc. at Y=50) | Dmax (BRAF G466V; HCT-116, BRAF G466V, percentage protein degraded at maximal compound effect relative to DMSO) | DC50 (BRAF G469A; Class 2, BRAF G469A, DC50 at 50%: fitted conc. at Y=50) | Dmax (BRAF G469A; HCT-116, Class 2, BRAF G469A, percentage protein degraded at maximal compound effect relative to DMSO) | DC50 (BRAF D594G; BRAF D594G, DC50 at 50%: fitted conc. at Y=50) | Dmax (BRAF D594G; HCT-116, BRAF D594G, percentage protein degraded at maximal compound effect relative to DMSO)
CCN(C)S(=O)(=O)Nc1cc(Cl)cc(-c2cn(-c3ccc(N4CCN(CC5CCN(c6ccc([C@H]7CCC(=O)NC7=O)cc6)CC5)CC4)cn3)nc2-c2ccncc2)c1F [Compound 310, (3R)-3-(4-{4-[(4-{6-[4-(5-chloro-3-{[ethyl(methyl)sulfamoyl]amino}-2-fluorophenyl)-3-(pyridin-4-yl)-1H-pyrazol-1-yl]pyridin-3-yl}piperazin-1-yl)methyl]piperidin-1-yl}phenyl)piperidine-2,6-dione] | < 10 nM | > 70% | 10 to 50 nM | > 70% | 10 to 50 nM | 30 to 70% | < 10 nM | > 70% |  |  |  |  |  |  |  | 
CCCS(=O)(=O)Nc1cccc(-c2nc(C(C)(C)C)sc2-c2ccnc(N[C@H]3CC[C@@H](N4CCN(C(=O)C5CCN(c6ccc(C7CCC(=O)NC7=O)cn6)CC5)CC4)CC3)n2)c1F (mixture of isomers) [Compound 138, N-{3-[2-tert-butyl-5-(2-{[(1s,4s)-4-[4-(1-{5-[(3RS)-2,6-dioxopiperidin-3-yl]pyridin-2-yl}piperidine-4-carbonyl)piperazin-1-yl]cyclohexyl]amino}pyrimidin-4-yl)-1,3-thiazol-4-yl]-2-fluorophenyl}propane-1-sulfonamide] |  |  |  |  |  |  |  |  | < 10 nM | > 70% | < 10 nM | 30 to 70% | < 10 nM | 30 to 70% | 10 to 50 nM | 30 to 70%

Next, values leading:

DC50 (BRAF V600E; [1]) | Dmax (BRAF V600E; [2]) | DC50 (BRAF G466V; [3]) | Dmax (BRAF G466V; [4]) | DC50 (BRAF G469A; [5]) | Dmax (BRAF G469A; [6]) | DC50 (BRAF D594G; [7]) | Dmax (BRAF D594G; [8]) | DC50 (BRAF V600E; A375 (BRAF V600E), DC50 at 50%: fitted conc. at Y=50) | Dmax (BRAF V600E; A375 (BRAF V600E), percentage protein degraded at maximal compound effect relative to DMSO) | DC50 (BRAF G466V; BRAF G466V, DC50 at 50%: fitted conc. at Y=50) | Dmax (BRAF G466V; HCT-116, BRAF G466V, percentage protein degraded at maximal compound effect relative to DMSO) | DC50 (BRAF G469A; Class 2, BRAF G469A, DC50 at 50%: fitted conc. at Y=50) | Dmax (BRAF G469A; HCT-116, Class 2, BRAF G469A, percentage protein degraded at maximal compound effect relative to DMSO) | DC50 (BRAF D594G; BRAF D594G, DC50 at 50%: fitted conc. at Y=50) | Dmax (BRAF D594G; HCT-116, BRAF D594G, percentage protein degraded at maximal compound effect relative to DMSO) | Compound
< 10 nM | > 70% | < 10 nM | > 70% | < 10 nM | > 70% | < 10 nM | 30 to 70% |  |  |  |  |  |  |  |  | O=C1CCC(c2ccc(N3CCC(CN4CCN(c5ccc(-n6cc(-c7cc(Cl)cc(NS(=O)(=O)N8CCCC8)c7F)c(-c7ccncc7)n6)cn5)CC4)CC3)nc2)C(=O)N1 (racemic) [Compound 352, Rac-N-{5-chloro-3-[1-(6-{4-[(1-{5-[(3R)-2,6-dioxopiperidin-3-yl]pyridin-2-yl}piperidin-4-yl)methyl]piperazin-1-yl}pyridin-3-yl)-3-(pyridin-4-yl)-1H-pyrazol-4-yl]-2-fluorophenyl}pyrrolidine-1-sulfonamide]
< 10 nM | > 70% | < 10 nM | > 70% | < 10 nM | > 70% | < 10 nM | 30 to 70% |  |  |  |  |  |  |  |  | O=C1CC[C@H](c2ccc(N3CCC(CN4CCN(c5ccc(-n6cc(-c7cc(Cl)cc(NS(=O)(=O)N8CCCC8)c7F)c(-c7ccncc7)n6)cc5)CC4)CC3)nc2)C(=O)N1 [Compound 285, N-{5-chloro-3-[1-(4-{4-[(1-{5-[(3R)-2,6-dioxopiperidin-3-yl]pyridin-2-yl}piperidin-4-yl)methyl]piperazin-1-yl}phenyl)-3-(pyridin-4-yl)-1H-pyrazol-4-yl]-2-fluorophenyl}pyrrolidine-1-sulfonamide]
< 10 nM | > 70% | < 10 nM | > 70% | < 10 nM | > 70% | < 10 nM | > 70% |  |  |  |  |  |  |  |  | O=C1CC[C@H](c2ccc(N3CCC(CN4CCN(c5ccc(-n6cc(-c7cc(Cl)cc(NS(=O)(=O)N8CC[C@@H](F)C8)c7F)c(-c7ccncc7)n6)nc5)CC4)CC3)cc2)C(=O)N1 [Compound 294, (3R)—N-{5-chloro-3-[1-(5-{4-[(1-{4-[(3R)-2,6-dioxopiperidin-3-yl]phenyl}piperidin-4-yl)methyl]piperazin-1-yl}pyridin-2-yl)-3-(pyridin-4-yl)-1H-pyrazol-4-yl]-2-fluorophenyl}-3-fluoropyrrolidine-1-sulfonamide]

Source: patent US20260317324A1, “BIFUNCTIONAL COMPOUNDS FOR DEGRADING BRAF VIA UBIQUITIN PROTEOSOME PATHWAY” (Nurix Therapeutics, Inc., priority 2023, published 2026)
